This is an account of results in paper PMC9331544, “Molecular Physicochemical Properties of Selected Pesticides as Predictive Factors for Oxidative Stress and Apoptosis-Dependent Cell Death in Caco-2 and HepG2 Cells” (International Journal of Molecular Sciences, 2022).

In data set [1] the test system is Caco-2 cells. Particulars: Caco-2, 24 h, ref [34], cited from earlier work.
In data set [2] the test system is HepG2 cells. The data set can be described thus: Intracellular ROS content, DCFDA, flow cytometry. In kind it is cell-based, human. Particulars: HepG2, 75 μM, 24 h. As to the method:
(§1) To assess pesticides-induced oxidative stress, the intracellular content in reactive oxygen species (ROS), content in glutathione (GSH), and lipid peroxidation was quantified by flow cytometry, following the methods described by Domínguez-Perles, et al. and Queiroz, et al.. Briefly, to assess ROS content, cells re-suspended in PBS (from Section 3.3.1) were centrifuged (5 min, 3000 rpm, bench micro-centrifuge) and, after eliminating the supernatant, 200 μL of 10 µM DCFDA solution (prepared in FBS-free DMEM) was added to each sample. After a 45 min incubation at 37 °C (in the dark, in an incubator), cells were centrifuged to remove excess of probe and re-suspended in PBS. Finally, 5 μL of propidium iodide (PI; 50 μg/mL) was added to each sample 3 min before flow cytometry acquisition.

The test system of data set [3] is Caco-2 cells. The data set can be described thus: Intracellular ROS content, DCFDA, flow cytometry. In kind it is cell-based, human. Particulars: 24 h. The procedure:
as §1

The subject of data set [4] is HepG2 cells. The data set can be described thus: Apoptosis/necrosis, Annexin-V-FITC/PI double staining, flow cytometry. Particulars: HepG2, 24 h, tested concentrations; listed as IMZ. In kind it is cell-based, human. The procedure: (§2) The samples where then incubated for 20 min at room temperature. After this period, 5 μL of propidium iodide (PI; at 50 μg/mL) solution were added to each sample 3 min before acquisition.

Data set [5] relates to Caco-2 cells. The description is as above. Type of data set: cell-based, human. As to the method: as §2
For data set [6] the following is noted: ref [47],[48],[49],[50]; cited from earlier work.
Data set [7] is described as follows: Alamar Blue cell viability/cytotoxicity assay. In kind it is cell-based, human. Particulars: human, mean ± SD (n = 4), read-out: IC50 of pesticide-induced cytotoxicity. As to the method: In this study, to assess the cytotoxic activity of GLY, IMD, and IMZ, human epithelial colorectal adenocarcinoma (Caco-2), cell lines service (CLS), (Eppelheim, Germany) and human hepatocellular carcinoma (HepG2) (ATCC, Rockville, Maryland, USA) cells were used. Cells were cultured in complete culture media (Dulbecco’s Modified Eagle Media (DMEM), supplemented with 1 mM L-glutamine, 10% (v/v) foetal bovine serum (FBS), and antibiotics (penicillin at 100 U/mL, and streptomycin at 100 μg/mL)) and maintained at 5% CO2/95% air; 37 °C, controlled humidity, in an incubator. Cells were grown in T25 culture flasks to near confluence. Then, these adherent cells were treated with trypsin (trypsin-EDTA), for detachment and subculture, which was stopped using complete culture medium (1:1, trypsin:culture media) as soon as cells were detached (about 6 and 8 minutes of trypsin treatment for HepG2 and Caco-2 cells, respectively). Detached cells were gently re-suspended with a Pasteur pipette and then a sample was counted using an automated cell counter (TC10™, BIORAD, Portugal). A suspension of cells in fresh culture media, at 5 × 10^4 cells/mL was prepared to seed into 96-well microplates (100 µL/well). After seeding, cells were placed in the incubator for 48 h (to adhere and stabilize) before being used, for other details see [66, 67].
Cell viability was assessed using the Alamar Blue® (AB) assay, after exposure to the pesticides. In summary, cells seeded into 96-well microplates were subjected to various concentrations of the pesticides (GLY: 0–1 mM; IMD: 0–1 mM; IMZ: 0–0.3 mM). To prepare the test solutions, the appropriate volume of the pesticide stock solution was diluted in FBS-free culture media just before its application to the cells. Stock solution of GLY was prepared in water (at 40 mM), and stock solutions of IMD and IMZ were prepared in DMSO (at 20 mM). After 24 h or 48 h of exposure, the test solutions were removed and the Alamar Blue solution (100 µL/well; 10% (v/v) in FBS-free medium) was immediately added to the cells, followed by a further 5 h incubation. The absorbance was then read at 570 and 620 nm using a microplate reader (Multiskan EX; MTX Lab Systems, Inc., Bradenton, FL, USA) and the percentage of the AB reduction was calculated according to the manufacturer’s instructions, as described before. Cell viability, at each condition, was calculated and expressed as percentage of control cells (non-exposed cells).
The concentrations needed to reduce cell viability by 50% (IC50) were calculated from three independent experiments (each one performed in quadruplicates), as described.

Data set [8] deals with HepG2 cells. The data set can be described thus: Lipid peroxidation, DHPE-FITC probe, flow cytometry. Type of data set: cell-based, human. Particulars: HepG2, 24 h, tested concentrations. The procedure:
(§3) Lipid peroxidation was evaluated using the DHPE-FITC probe. Cells re-suspended in PBS (see Section 3.3.1) were incubated with 20 μM DHPE-FITC, for 20 min in the dark at room temperature (as describe).

Data set [9] concerns Caco-2 cells. The data set is described as above. Type of data set: cell-based, human. Particulars: Caco-2, 24 h, tested concentrations. The procedure:
as §3

The conditions of data set [10]: ref [47],[48],[49],[50]; cited from earlier work. This is another data set of the same source.

≈ marks a conversion by molar mass, not a printed value. Entries after “also recorded” stand apart in the source; their conditions may differ. Like-named read-outs stand apart in the source and are kept apart here.

Consider `C=CCOC(Cn1ccnc1)c1ccc(Cl)cc1Cl` (stereo not drawn) [Imazalil, imazalil], for which the IC50 with Caco-2 cells [1] (converted value, read-out: IC50 (cytotoxicity)) was about 100 µM. Also, the “IC50 (cytotoxicity)” value with Caco-2 cells [1] was 30 µg/mL (≈ 101 µM). For the same compound, the “increase in ROS content compared with control” value in the data set on HepG2 cells [2] is reported as 4.56 fold; with Caco-2 cells [3] (Caco-2, 75 μM), 2.40 fold; in the data set with Caco-2 cells [3] (Caco-2, 250 μM), 6.5 fold. Moreover, the “apoptosis/necrosis induction (in words)” value in the data set on HepG2 cells [4] was “dose-dependently increased apoptosis; also recorded: no necrotic events recorded”; in the data set with Caco-2 cells [5] (Caco-2, 24 h, tested concentrations, listed as IMZ), “dose-dependent increase in late apoptosis”. For the same compound, the cells in necrosis with Caco-2 cells [5] (Caco-2, highest concentration (250 μM), 24 h, Figure 6B) was ~ 23%. The “H-bond (donor count)” value in data set [6] is given as 0. Besides, the “H-donor (acceptor count)” value in data set [6] was 2. Moreover, the IC50 at 24 h in [7] (Caco-2 cells, Caco-2, 24 h exposure) was 254 ± 3.37 µM; in [7] (HepG2 cells, HepG2, 24 h exposure) it was 94 ± 12 µM. The IC50 at 48 h was 187 ± 2 µM in data set [7] (Caco-2 cells, Caco-2, 48 h exposure) and 47 ± 3 µM in data set [7] (HepG2 cells, HepG2, 48 h exposure). For the same compound, the “lipid peroxidation (LP) vs control (in words)” value in the data set with HepG2 cells [8] was “did not increase lipid peroxidation”; in the data set on Caco-2 cells [9], “induced significant LP”. The “Partition Coefficient n-octanol/water (Log Pow)” value in [10] is recorded as 4.56. Moreover, the Water solubility in data set [10] was 1400 µg/mL.
